US7795226B2, “Control of radiation injury” (Biotempt B.V., priority 2006, dated 2010)

test system: cell-cycle marker pCDG and auxin-responsive marker DR5::GUS; test: Arabidopsis thaliana seedling cell-cycle analysis (GUS markers); conditions: Results from Examples 9 and 10
Procedure: To further study anti-cell-cycle activity of various oligopeptides, a proliferation experiment in Arabidopsis Thaliana seedlings was performed. The aim was to test a group of 140 oligopeptides of varying length for their effect on plant marker gene expression during rapid growth when avid cell division occurs.
The peptides were re-suspended in 1× Phosphate Buffer Saline (PBS) pH 8 to a final concentration of 5 mg/ml. The obtained solutions were then divided through 96-well round bottom plates (Corning Incorporated) at 40 microliters per well. Plates were stored before use at […] for four days. Seeds of Arabidopsis thaliana ecotype Ws-0 were surface sterilized in 2% commercial bleach (Gloria) for ten minutes and washed five times with sterile MQ water. The seeds were then re-suspended with 0.1% agar and plated on MS20 plates supplemented with 80 mg/l Kanamycin.
The plates were placed at […] for two nights and then transferred to a climate room at […] and a 16/8 hours photoperiod. After four days of growth, the seedlings were transferred to 96-well plates containing the peptide solutions (four seedlings per well) and incubated for four and eight hours.
For this experiment, Arabidopsis homozygous seedlings harboring two reporter genes fused to GUS were used. […] After incubation with the compounds, the seedlings were stained for GUS. The staining reaction was performed in 100 mM sodium phosphate buffer (pH 7.0) that contained 10 mM EDTA, 10% DMSO, 0.1% Triton X-100, 2 mM X-Gluc, 0.5 mM K3Fe(CN)6 and 0.5 mM K4Fe(CN)6 at […] for 16 hours. […] Seedlings were fixed and cleared in chloral hydrate solution for detailed microscopic observation and photography under a microscope equipped with DIC optics.
Peptides were tested for an effect on marker gene expression on rapidly growing Arabidopsis young seedlings. This was monitored by changes on GUS distribution in different organs: root, root-hypocotyl transition zone and cotyledons.

Substance | identified as useful peptide for treatment of radiation injury from cell-cycle studies in plants and in vitro proliferation studies
AFTV (CRP-derived peptide) | useful
APSL (human beta-catenin-derived peptide) | useful
AVAL | useful
CPRGVNP | useful
CPVQ (tetramer peptide) | useful
DINGFLPAL | useful
EALE (tetramer peptide) | useful
EMFQ (tetramer peptide) | useful
EPPE (tetramer peptide) | useful
EVVR (tetramer peptide) | useful
FSYA (CRP-derived peptide) | useful
FVLS (CRP-derived peptide) | useful
FWVD (CRP-derived peptide) | useful
GVLC (human beta-catenin-derived peptide) | useful
ITTL (human beta-catenin-derived peptide) | useful
LCFL | useful
LGTL | useful
LHNL | useful
LNEAL (pentamer peptide) | useful
LNTI (human beta-catenin-derived peptide) | useful
LQAV (tetramer peptide) | useful

Substance | identified as useful peptide for treatment of radiation injury from cell-cycle studies in plants and in vitro proliferation studies
LQGA (tetramer peptide) | useful
LTCDDP | useful
MGGTWA | useful
MTEV (tetramer peptide) | useful
NLIN (human beta-catenin-derived peptide) [NUN] | useful
NMWD (CRP-derived peptide) | useful
PGCP | useful
QALG (human beta-catenin-derived peptide) | useful
QLLG (human beta-catenin-derived peptide) | useful
QPLAPLVG | useful
QVVC (tetramer peptide) | useful
RLPG | useful
RVLQ (tetramer peptide) | useful
SPIE (human beta-catenin-derived peptide) | useful
TLAVE (beta-hCG-derived peptide) | useful
VCNYRDV | useful
VEGNL (pentamer peptide) | useful
VGGI | useful
VGQL (tetramer peptide) | useful
VLPAPLQ (septamer peptide) | useful
YAIT (human beta-catenin-derived peptide) | useful

same assay, conditions: seedlings incubated four and eight hours; 5 mg/ml peptide solution

Substance | effect on cell-cycle marker (pCDG) and auxin-responsive marker (DR5::GUS) (in words)
DINGFLPAL | less consistent and time-dependent effect
